Target: T1, human mGlu4 receptor (Homo sapiens, UniProt Q14833)
T1 construct: expressed in transfected cells; host or cells: monoclonal HEK-293 cell line, stably transfected
Assay: Ca2+ mobilization in vitro assay on recombinant human mGlu4 expressed in HEK293 cells (PAM, L-AP4 at EC20)
Assay type: cell-based
Settings: for Emax: HEK293, maximal response in % of the maximal stimulatory effect obtained with saturating concentrations of L-AP4, read-out: Eff. (%); for EC50: HEK293 cells expressing human mGlu4, L-AP4 added at EC20
Text: FIG. 1: Illustration of the experimental outline for mGlu4 PAM Ca2+ mobilization screening assay and the determination of EC50 and % Emax values.
Determination of EC50 Values Using a Ca2+ Mobilization In Vitro Assay on Recombinant Human mGlu4 Expressed in HEK293 Cells:
A monoclonal HEK-293 cell line stably transfected with a cDNA encoding for the human mGlu4 receptor was generated; for the work with mGlu4 Positive Allosteric Modulators (PAMs), a cell line with low receptor expression levels and low constitutive receptor activity was selected to allow the differentiation of agonistic versus PAM activity. Cells were cultured according to standard protocols (Freshney, 2000) in Dulbecco's Modified Eagle Medium with high glucose supplemented with 1 mM glutamine, 10% (vol/vol) heat-inactivated bovine calf serum, Penicillin/Streptomycin, 50 μg/ml hygromycin and 15 μg/ml blasticidin (all cell culture reagents and antibiotics from Invitrogen, Basel, Switzerland).
About 24 hrs before an experiment, 5×10^4 cells/well were seeded in poly-D-lysine coated, black/clear-bottomed 96-well plates. The cells were loaded with 2.5 μM Fluo-4AM in loading buffer (1×HBSS, 20 mM HEPES) for 1 hr at 37° C. and washed five times with loading buffer. The cells were transferred into a Functional Drug Screening System 7000 (Hamamatsu, Paris, France), and 11 half logarithmic serial dilutions of test compound at 37° C. were added and the cells were incubated for 10-30 min. with on-line recording of fluorescence. Following this pre-incubation step, the agonist (2S)-2-amino-4-phosphonobutanoic acid (L-AP4) was added to the cells at a concentration corresponding to EC20 with on-line recording of fluorescence; in order to account for day-to-day variations in the responsiveness of cells, the EC20 of L-AP4 was determined immediately ahead of each experiment by recording of a full dose-response curve of L-AP4. Responses were measured as peak increase in fluorescence minus basal (i.e. fluorescence without addition of L-AP4), normalized to the maximal stimulatory effect obtained with saturating concentrations of L-AP4. Graphs were plotted with the % maximal stimulatory using XLfit, a curve fitting program that iteratively plots the data using Levenburg Marquardt algorithm. The single site competition analysis equation used was y=A+((B−A)/(1+((x/C)D))), where y is the % maximal stimulatory effect, A is the minimum y, B is the maximum y, C is the EC50, x is the log 10 of the concentration of the competing compound and D is the slope of the curve (the Hill Coefficient). From these curves the EC50 (drug concentration at which 50% of the maximal receptor activation was achieved), the Hill coefficient as well as the maximal response in % of the maximal stimulatory effect obtained with saturating concentrations of L-AP4 were calculated (see FIG. 1). […] A depression of the signal observed after addition of the EC20 concentration of L-AP4 was indicative of an inhibitory activity of the test compound.

T1 sequence (Q14833 33-912): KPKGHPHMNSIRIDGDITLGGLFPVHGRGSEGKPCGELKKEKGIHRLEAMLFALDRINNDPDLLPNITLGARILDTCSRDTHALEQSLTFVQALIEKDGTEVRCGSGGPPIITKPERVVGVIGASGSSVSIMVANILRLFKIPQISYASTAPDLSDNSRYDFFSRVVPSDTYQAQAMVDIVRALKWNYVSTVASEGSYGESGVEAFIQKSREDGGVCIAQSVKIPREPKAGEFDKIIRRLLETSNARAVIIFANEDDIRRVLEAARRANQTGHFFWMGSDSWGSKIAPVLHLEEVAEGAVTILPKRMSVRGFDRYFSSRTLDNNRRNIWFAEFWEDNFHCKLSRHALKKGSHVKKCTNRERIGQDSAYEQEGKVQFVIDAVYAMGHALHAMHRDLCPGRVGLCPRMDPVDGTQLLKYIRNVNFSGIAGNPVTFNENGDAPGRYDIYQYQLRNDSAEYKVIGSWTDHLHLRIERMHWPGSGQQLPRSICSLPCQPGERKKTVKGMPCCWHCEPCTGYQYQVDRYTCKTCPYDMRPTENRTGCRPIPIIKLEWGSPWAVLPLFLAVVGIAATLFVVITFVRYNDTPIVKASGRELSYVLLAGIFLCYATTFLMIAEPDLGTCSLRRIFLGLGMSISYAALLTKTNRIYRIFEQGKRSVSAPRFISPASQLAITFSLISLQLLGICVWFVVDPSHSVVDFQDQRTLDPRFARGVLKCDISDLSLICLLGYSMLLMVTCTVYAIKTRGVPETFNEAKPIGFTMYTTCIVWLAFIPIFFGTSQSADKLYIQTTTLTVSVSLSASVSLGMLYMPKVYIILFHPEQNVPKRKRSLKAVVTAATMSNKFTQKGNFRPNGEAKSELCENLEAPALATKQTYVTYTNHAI

| Emax | EC50 | SMILES |
| --- | --- | --- |
| 135% | 47 nM | CC[C@@]1(c2cnn(C)c2)CC(=O)N(c2c(F)cc(C#Cc3ccccc3)cc2F)C(=O)N1C [Example 18, (6S)-3-[2,6-Difluoro-4-(2-phenylethynyl)phenyl]-6-ethyl-1-methyl-6-(1-methylpyrazol-4-yl)hexahydropyrimidine-2,4-dione] |
| 151% | 67 nM | CN1C(=O)N(c2c(F)cc(C#Cc3ccccc3)cc2F)C(=O)C[C@@]1(C)c1ccns1 [Example 43, (6S)-3-[2,6-Difluoro-4-(2-phenylethynyl)phenyl]-6-isothiazol-5-yl-1,6-dimethyl-hexahydropyrimidine-2,4-dione] |
| 143% | 56 nM | CN1C(=O)N(c2c(F)cc(C#Cc3ccccc3)cc2F)C(=O)C[C@@]1(C)c1cnn(CCCO)c1 [Example 22, (6S)-3-[2,6-Difluoro-4-(2-phenylethynyl)phenyl]-6-[1-(3-hydroxypropyl)pyrazol-4-yl]-1,6-dimethyl-hexahydropyrimidine-2,4-dione] |
| 100% | 147 nM | CN1C(=O)N(c2c(F)cc(C#Cc3ccccc3)cc2F)C(=O)C[C@@]1(C)c1ccnn1C [Example 7, (6S)-3-[2,6-Difluoro-4-(2-phenylethynyl)phenyl]-1,6-dimethyl-6-(2-methylpyrazol-3-yl)hexahydropyrimidine-2,4-dione] |
| 95% | 67 nM | CCN1C(=O)N(c2c(F)cc(C#Cc3ccccc3)cc2F)C(=O)C[C@@]1(C)c1cnn(C)c1 [Example 12, (6S)-3-[2,6-Difluoro-4-(2-phenylethynyl)phenyl]-1-ethyl-6-methyl-6-(1-methylpyrazol-4-yl)hexahydropyrimidine-2,4-dione] |
| 146% | 69 nM | CN1C(=O)N(c2c(F)cc(C#Cc3ccccc3)cc2F)C(=O)C[C@@]1(C)c1ccn(C)n1 [Example 26, (6S)-3-[2,6-Difluoro-4-(2-phenylethynyl)phenyl]-1,6-dimethyl-6-(1-methylpyrazol-3-yl)hexahydropyrimidine-2,4-dione] |
| 134% | 84 nM | CN1C(=O)N(c2c(F)cc(C#Cc3ccccc3)cc2F)C(=O)C[C@@]1(C)c1cc[nH]n1 [Example 10, (6S)-3-[2,6-Difluoro-4-(2-phenylethynyl)phenyl]-1,6-dimethyl-6-(1H-pyrazol-3-yl)hexahydropyrimidine-2,4-dione] |
| 137% | 54 nM | COCCn1cc([C@]2(C)CC(=O)N(c3c(F)cc(C#Cc4ccccc4)cc3F)C(=O)N2C)cn1 [Example 20, (6S)-3-[2,6-Difluoro-4-(2-phenylethynyl)phenyl]-6-[1-(2-methoxyethyl)pyrazol-4-yl]-1,6-dimethyl-hexahydropyrimidine-2,4-dione] |
| 143% | 44 nM | CN1C(=O)N(c2c(F)cc(C#Cc3ccc(F)cc3F)cc2F)C(=O)C[C@@]1(C)c1cn[nH]c1 [Example 56, (6S)-3-[4-[2-(2,4-Difluorophenyl)ethynyl]-2,6-difluoro-phenyl]-1,6-dimethyl-6-(1H-pyrazol-4-yl)hexahydropyrimidine-2,4-dione] |
| 117% | 23 nM | COCCCn1ccc([C@]2(C)CC(=O)N(c3c(F)cc(C#Cc4ccccc4)cc3F)C(=O)N2C)n1 [Example 31, (6S)-3-[2,6-Difluoro-4-(2-phenylethynyl)phenyl]-6-[1-(3-methoxypropyl)pyrazol-3-yl]-1,6-dimethyl-hexahydropyrimidine-2,4-dione] |
| 141% | 39 nM | CN1C(=O)N(c2c(F)cc(C#Cc3cccnc3)cc2F)C(=O)C[C@@]1(C)c1cnn(C)c1 [Example 24, (6S)-3-[2,6-Difluoro-4-[2-(3-pyridyl)ethynyl]phenyl]-1,6-dimethyl-6-(1-methylpyrazol-4-yl)hexahydropyrimidine-2,4-dione] |
| 142% | 37 nM | CN1C(=O)N(c2c(F)cc(C#Cc3ccccc3)cc2F)C(=O)C[C@@]1(C)c1ccon1 [Example 40, (6S)-3-[2,6-Difluoro-4-(2-phenylethynyl)phenyl]-6-isoxazol-3-yl-1,6-dimethyl-hexahydropyrimidine-2,4-dione] |
| 148% | 71 nM | Cc1ncc([C@]2(C)CC(=O)N(c3c(F)cc(C#Cc4ccccc4)cc3F)C(=O)N2C)s1 [Example 39, (6S)-3-[2,6-Difluoro-4-(2-phenylethynyl)phenyl]-1,6-dimethyl-6-(2-methylthiazol-5-yl)hexahydropyrimidine-2,4-dione] |
| 109% | 121 nM | CN1C(=O)N(c2c(F)cc(C#Cc3ccccc3)cc2F)C(=O)C[C@@]1(C)c1cn(C)cn1 [Example 2, (6S)-3-[2,6-Difluoro-4-(2-phenylethynyl)phenyl]-1,6-dimethyl-6-(1-methylimidazol-4-yl)hexahydropyrimidine-2,4-dione] |
| 128% | 71 nM | CN1C(=O)N(c2c(F)cc(C#Cc3ccccc3)cc2F)C(=O)C[C@@]1(C)c1cnn(C2CCOC2)c1 (mixture of isomers) [Example 62, (6S)-3-[2,6-Difluoro-4-(2-phenylethynyl)phenyl]-1,6-dimethyl-6-[1-[(3RS)-tetrahydrofuran-3-yl]pyrazol-4-yl]hexahydropyrimidine-2,4-dione] |
| 136% | 71 nM | CN1C(=O)N(c2c(F)cc(C#Cc3cccc(F)c3)cc2F)C(=O)C[C@@]1(C)c1cnn(C)c1 [Example 47, (6S)-3-[2,6-Difluoro-4-[2-(3-fluorophenyl)ethynyl]phenyl]-1,6-dimethyl-6-(1-methylpyrazol-4-yl)hexahydropyrimidine-2,4-dione] |
| 138% | 94 nM | Cc1nc(C2(C)CC(=O)N(c3c(F)cc(C#Cc4ccccc4)cc3F)C(=O)N2C)cs1 (racemic) [Example 3, (6RS)-3-[2,6-Difluoro-4-(2-phenylethynyl)phenyl]-1,6-dimethyl-6-(2-methylthiazol-4-yl)hexahydropyrimidine-2,4-dione] |
| 95% | 136 nM | CN1C(=O)N(c2c(F)cc(C#Cc3ccccc3)cc2F)C(=O)C[C@@]1(C)c1ncnn1C [Example 4, (6S)-3-[2,6-Difluoro-4-(2-phenylethynyl)phenyl]-1,6-dimethyl-6-(2-methyl-1,2,4-triazol-3-yl)hexahydropyrimidine-2,4-dione] |
| 131% | 36 nM | CN1C(=O)N(c2c(F)cc(C#Cc3ccccc3)cc2F)C(=O)C[C@@]1(C)c1cn[nH]c1 [Example 16, (6S)-3-[2,6-Difluoro-4-(2-phenylethynyl)phenyl]-1,6-dimethyl-6-(1H-pyrazol-4-yl)hexahydropyrimidine-2,4-dione] |
| 119% | 113 nM | CN1C(=O)N(c2c(F)cc(C#Cc3ccccc3)cc2F)C(=O)C[C@@]1(C)c1nccs1 [Example 1, (6S)-3-[2,6-Difluoro-4-(2-phenylethynyl)phenyl]-1,6-dimethyl-6-thiazol-2-yl-hexahydropyrimidine-2,4-dione] |
| 91% | 59 nM | CN1C(=O)N(c2c(F)cc(C#Cc3ccccc3)cc2F)C(=O)C[C@@]1(C)c1cncn1C [Example 11, (6S)-3-[2,6-Difluoro-4-(2-phenylethynyl)phenyl]-1,6-dimethyl-6-(3-methylimidazol-4-yl)hexahydropyrimidine-2,4-dione] |
| 99% | 71 nM | CN1C(=O)N(c2c(F)cc(C#Cc3ccccc3)cc2F)C(=O)C[C@@]1(C)c1ccn(CC(C)(C)O)n1 [Example 63, (6S)-3-[2,6-Difluoro-4-(2-phenylethynyl)phenyl]-6-[1-(2-hydroxy-2-methyl-propyl)pyrazol-3-yl]-1,6-dimethyl-hexahydropyrimidine-2,4-dione] |
| 99% | 157 nM | CN1C(=O)N(c2c(F)cc(C#Cc3ccccc3)cc2F)C(=O)C[C@@]1(C)c1nn(C)c2ccccc12 [Example 8, (6S)-3-[2,6-Difluoro-4-(2-phenylethynyl)phenyl]-1,6-dimethyl-6-(1-methylindazol-3-yl)hexahydropyrimidine-2,4-dione] |
| 115% | 64 nM | CCn1cc([C@]2(C)CC(=O)N(c3c(F)cc(C#Cc4ccccc4)cc3F)C(=O)N2C)cn1 [Example 13, (6S)-3-[2,6-Difluoro-4-(2-phenylethynyl)phenyl]-6-(1-ethylpyrazol-4-yl)-1,6-dimethyl-hexahydropyrimidine-2,4-dione] |

From US10065956B2, “Ethynyl derivatives” (Hoffmann-La Roche Inc., priority 2015, dated 2018)
